Data set [1] concerns human islets. In kind it is cell-based. The method, then: FIG. 2. Human islets (50/well) were incubated in media with, or without, alprazolam (30 ng/ml) for 4 days in the presence of ^3H thymidine. Data shown are the average rate of proliferation relative to that of cultures with media alone (designated as 1). N=two independent studies with triplicate cultures. Data was very similar in both studies.
N=two independent studies

For data set [2], the system named is INS-1 cells. The data set can be described thus: INS-1 cell proliferation, 3H-thymidine incorporation assay. In kind it is cell-based. Particulars: for INS-1 cell proliferation, single agents of TSPO experiment: each agent alone, midazolam or clonazepam 100 nM; for effect on GABA-stimulated INS-1 cell proliferation: low doses of PAM with GABA, FIG. 9 panels D-G. The method, then: 1. ^3H-thymidine incorporation assay: INS-1 cells at 1×10^5/well were treated in triplicate with indicated concentrations of individual compounds and cultured in 10% FCS RPMI164 medium in the presence of 0.3 μCi/well of 3H-thymidine for 48 hours (an optimal time period). The cells were harvested and the levels of ^3H-thymidine uptake in individual wells were measured by beta-counter.
1. ^3H-thymidine incorporation assay: INS-1 cells at 1×10^5/well were treated in triplicate with indicated concentrations of individual compounds and cultured in 10% FCS RPMI164 medium in the presence of 0.3 uCi/well of ^3H-thymidine for 48 hours (an optimal time period). The cells were harvested and the levels of ^3H-thymidine uptake in individual wells were measured by beta-counter.
INS-1 cells at 1×10^5/well were treated in triplicate with indicated concentrations of individual compounds and cultured in 10% FCS RPMI164 medium in the presence of ^3H-thymidine (0.3 μCi/well) for 48 hours (an optimal time period). The levels of ^3H-thymidine uptake in individual wells were measured by a scintillation counter.
A general note: Dividing cells build labelled thymidine or BrdU into new DNA.

For data set [3] the following is noted: long-term oral GABA, human clinical trials, epileptic seizures and cerebrovascular disorders; cited from earlier work.
Data set [4] deals with adult human β-cells in islet xenoplants. Particulars: oral GABA treatment; from less than 1% without; cited from earlier work.
The nature of data set [5]: Solubility of test compounds (stock solutions).
For data set [6], the system named is EAE. Particulars: stressed rats; cited from earlier work.
Data set [7] deals with mitochondrial translocator protein (TSPO) (Homo sapiens, UniProt P30536). Particulars: cited from earlier work.
Sequence of mitochondrial translocator protein (TSPO) (P30536 whole entry): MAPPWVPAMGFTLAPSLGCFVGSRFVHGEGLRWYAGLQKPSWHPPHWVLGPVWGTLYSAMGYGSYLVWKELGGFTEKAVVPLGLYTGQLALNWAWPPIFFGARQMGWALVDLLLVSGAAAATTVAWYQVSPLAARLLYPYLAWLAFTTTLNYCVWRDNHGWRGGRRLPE
For data set [8] the following is noted: patients with T1D or T2D, poor glucose control, after 8 weeks of treatment, vs placebo; cited from earlier work.
The conditions of data set [9]: persons receiving the drug therapeutically; cited from earlier work.
Setting [10] is: GABA 0.3 mM, PK11195 1 uM, 48 hrs.
[11] abbreviates: PAM 100 nM with GABA 0.3 mM, 48 hrs.
[12] abbreviates: PAM at 10^−7 or 3×10^−8 M with GABA.
The mark [13] stands for this setting: PAM alone at 10 or/and 100 nM, FIG. 9 panel B.
Where [14] appears, read: compound alone at 10^−7-10^−8 M.

By solubility is commonly meant how much of the substance goes into solution per volume.

Values after ≈ are worked out from the molar mass of the structure shown. “Also recorded” adds a separate entry of the source. Where two headings read alike, the source gives them in different places.

For `NCCCC(=O)O` [GABA, gamma-aminobutyric acid], the “human islet cell proliferation” value in data set [1] (0.03 mM GABA alone, 4 days, FIG. 3) is on record as “did not significantly enhance human islet cell proliferation”; in [1] (0.03 mM GABA alone, FIG. 12) it was “did not significantly enhance human islet cell proliferation”; in data set [1] (GABA alone at 0.3-3 mM, FIG. 12) it was “significantly enhanced human islet cell proliferation”. Also, the “level of GABA alone required to achieve a similar level of proliferation” value in [1] (similar to 0.03 mM GABA + 100 nM alprazolam, FIG. 12) came to 0.3 mM; in [1] (similar to 0.03 mM GABA + alprazolam 30 ng/ml, FIG. 3), 0.3 mM. The INS-1 cell proliferation result in [2] (0.01 mM GABA alone, FIG. 9 panels C-G) is “did not stimulate INS-1 proliferation”; in data set [2] (GABA alone at 0.03-0.01 mM), “failed to induce INS-1 cell proliferation; also recorded: did not significantly stimulate INS-1 cell proliferation”; in data set [2] (GABA alone at 0.03-0.3 mM, FIG. 9 panels C-G), “stimulated INS-1 cell proliferation”; in [2] (GABA alone at 1-0.1 mM), “stimulated INS-1 cell proliferation”. Moreover, the “INS-1 cell proliferation, single agents of TSPO experiment” value (from here on “INS-1 cell proliferation, single agents”) in [2] (setting [10]) is “induced INS-1 cell proliferation”. Moreover, in [3], the adverse effects result is given as “no adverse effects”. Moreover, the clinical benefit entry in data set [3] is listed as “no clinical benefit”. For the same molecule, the “replicating adult human β-cells in islet xenoplants” value in data set [4] is listed as 2-3%.
On to `O=C1CN=C(c2ccccc2Cl)c2cc([N+](=O)[O-])ccc2N1` [clonazepam], for which the INS-1 cell proliferation entry in data set [2] (setting [11]) is “enhanced cell proliferation”; in [2] (compound alone at 10^−4-10^−9 M, 48 hours), “did not significantly change the proliferation of INS-1 cells”. The “effect on GABA-induced INS-1 cell proliferation” value in [2] (setting [12]) is “significantly enhanced GABA-stimulated INS-1 cell proliferation”. Besides, in data set [2] (setting [10]), the “INS-1 cell proliferation, single agents” value was “but not clonazepam or PK11195 induced INS-1 cell proliferation”. Also, the “effect on GABA-stimulated INS-1 cell proliferation” value in data set [2] is “enhanced GABA-stimulated INS-1 cell proliferation”.
For the molecule `Cc1ncc2n1-c1ccc(Cl)cc1C(c1ccccc1F)=NC2` [midazolam], the INS-1 cell proliferation result in data set [2] (setting [11]) is “enhanced cell proliferation”; in data set [2] (setting [13]), “significantly stimulated proliferation of INS-1 cells”; in data set [2] (PAM at 10^−7 or 3×10^−8 M with GABA at 0.03-0.01 mM), “significantly enhanced INS-1 cell proliferation”; in [2] (compound alone at 10^−7-3×10^−8 M, FIG. 4B) it was “significantly enhanced the proliferation of INS cells”; in [2] (setting [14]), “significantly enhanced INS-1 cell proliferation”. In addition, the “effect on GABA-induced INS-1 cell proliferation” value in [2] (setting [12]) was “enhanced GABA-induced INS-1 cell proliferation”. Moreover, the “toxicity against INS-1 cells” value in data set [2] (compound alone at 10^−5 M) was “slight toxicity”. For the same molecule, the “INS-1 cell proliferation, single agents” value in [2] (setting [10]) is on record as “induced INS-1 cell proliferation”. Further, the “effect on GABA-stimulated INS-1 cell proliferation” value in data set [2] is recorded as “enhanced GABA-stimulated INS-1 cell proliferation”. In [5] (water), this molecule showed a solubility of 6.25 mM (≈ 2040 µg/mL).
In the case of `Cc1cc(NC(=O)/C(C#N)=C(\O)C2CC2)ccc1C(F)(F)F` [AP325], the “effect on GABA-induced INS-1 cell proliferation” value in data set [2] (AP325 at 10^−7-10^−8 M with GABA, FIG. 7) was “significantly enhanced GABA-induced INS-1 cell proliferation”. Also, the “INS-1 cell proliferation (toxicity at high dose)” value in [2] (compound alone at 10^−4-10^−5 M, FIG. 6) is “significantly inhibited INS-1 cell proliferation”. For the same molecule, the INS-1 cell proliferation result in [2] (compound alone at 10^−6-10^−10, FIG. 6) is given as “did not increase significantly the proliferation of INS-1 cells”; in data set [2] (setting [14]), “slightly increased the proliferation of INS-1 cells”; in data set [2] (compound at 3×10^−7-10^−8 M together with 0.03 mM GABA), “significantly promoted INS-1 cell proliferation”; in data set [2] (compound at 10^−6 M, data not shown) it was “did not significantly change the proliferation of INS-1 cells”; in [2] (compound at 10^−7 together with 0.01 mM GABA), “significantly stimulated INS-1 cell proliferation”. In addition, the “soluble in DMSO” value in data set [5] (in DMSO) was determined as 50 mM.
As for `CCC(C)N(C)C(=O)c1cc2ccccc2c(-c2ccccc2Cl)n1` (centres unmarked) [PK11195], the “effect of TSPO inhibitor on GABA + midazolam or clonazepam enhanced INS-1 cell proliferation” value in data set [2] (PK11195 1 uM, GABA 0.3 mM, PAM 100 nM, 48 hrs, FIG. 9 panel H) was “not affected by PK11195; also recorded: did not affect the ability of GABA and the tested benzodiazepines to enhance INS-1 cell replication”. The “INS-1 cell proliferation, single agents” value in [2] (setting [10]) is reported as “but not clonazepam or PK11195 induced INS-1 cell proliferation”.
On to `Cc1nnc2n1-c1ccc(Cl)cc1C(c1ccccc1)=NC2` [alprazolam], for which the “human islet cell proliferation” value in data set [1] (0.03 mM GABA together with 100 nM alprazolam, FIG. 12) is given as “significantly enhanced human islet cell proliferation”; in data set [1] (dose range of alprazolam alone, low concentrations, FIG. 10), “promoted human islet cell proliferation”. In addition, in [1] (0.03 mM GABA together with alprazolam 30 ng/ml, 4 days, FIG. 3), the “human islet cell proliferation enhanced” value was found to be 138%. Also, the “human islet cell proliferation promoted compared to cultures with no alprazolam” value in data set [1] (alprazolam 30 ng/ml alone, no added GABA, 4 days, FIG. 2) is recorded as “about 123%”. Besides, the “human islet cell proliferation relative to the corresponding GABA (alone) dose” value in data set [1] (co-treatment 100 nM alprazolam and GABA, FIG. 12) was “significantly increased human islet cell proliferation”. For the same molecule, the INS-1 cell proliferation entry in [2] (0.01 mM GABA in the presence of 30 or 100 nM alprazolam, FIG. 9 panel C) is “significantly increased INS-1 cell proliferation”; in [2] (setting [13]) it was “significantly stimulated proliferation of INS-1 cells”. Besides, the “ability to enhance GABA's pro-mitotic effects on INS-1 cells” value in data set [2] (alprazolam at high concentration of GABA (0.1 or 0.3 mM)) is recorded as “had less ability to enhance GABA's pro-mitotic effects”. For the same molecule, in data set [6], the “EAE and inflammation in the spinal cords” value is “inhibited EAE and inflammation in the spinal cords”. Besides, the “binding to TSPO” value in data set [7] is “does not bind to TSPO”. Also, in [8], the HbA1c levels entry is “significantly reduced”. For the same molecule, the “concentration in the serum” value in data set [9] was 10 to 100 ng/mL.
